# In ChEMBL document CHEMBL2440100, “Therapeutic potential of the peptide leucine arginine as a new nonplant bowman-birk-like serine protease inhibitor” (J Med Chem, 2013):
# Where a SMILES comes first, the peptide text is derived from it. Bridges are numbered along the chain shown (N, C = ends).
# Assay: Inhibition of bovine trypsin using benzoyl-L-arginine p-nitroanilide as substrate after 5 to 60 mins
# Set-up: species or system Bos taurus
row,Structure (SMILES),Ki [nM]
1,C[C@@H](O)[C@@H]1NC(=O)[C@H](Cc2c[nH]c3ccccc23)NC(=O)[C@@H](N)CSSC[C@@H](C(=O)O)NC(=O)[C@@H]2CCCN2C(=O)[C@H](CCCCN)NC(=O)[C@@H]2CCCN2C(=O)[C@@H]2CCCN2C(=O)[C@H](Cc2ccc(O)cc2)NC(=O)[C@H](CO)NC(=O)[C@H](CCCCN)NC1=O,335
2,CC[C@H](C)[C@@H]1NC(=O)[C@@H]2CCCN2C(=O)[C@@H]2CCCN2C(=O)[C@H]([C@@H](C)CC)NC(=O)[C@H](CO)NC(=O)[C@H](CCCCN)NC(=O)[C@H]([C@@H](C)O)NC(=O)[C@@H](NC(=O)[C@H](CCCNC(=N)N)NC(=O)CN)CSSC[C@@H](C(=O)N[C@@H](Cc2ccccc2)C(=O)N2CCC[C@H]2C(=O)N[C@@H](CC(=O)O)C(=O)O)NC1=O,20
3,CC(C)C[C@H](NC(=O)[C@H](C)NC(=O)CN)C(=O)N[C@@H](CCCNC(=N)N)C(=O)NCC(=O)N[C@H]1CSSC[C@@H](C(=O)N[C@@H](CCCCN)C(=O)O)NC(=O)[C@@H]2CCCN2C(=O)[C@H](CCCCN)NC(=O)[C@@H]2CCCN2C(=O)[C@@H]2CCCN2C(=O)[C@H](Cc2ccc(O)cc2)NC(=O)[C@H](CO)NC(=O)[C@H](CCCCN)NC(=O)[C@H]([C@@H](C)O)NC(=O)[C@H](Cc2c[nH]c3ccccc23)NC1=O (H-GALRGCWTKSYPPKPCK-OH; disulfide 6-16),116
4,CC(C)C[C@H](N)C(=O)N[C@H](C(=O)N[C@@H](CCCNC(=N)N)C(=O)NCC(=O)N[C@H]1CSSC[C@@H](C(=O)N[C@@H](Cc2ccccc2)C(=O)N[C@H](C(=O)N[C@@H](CCCNC(=N)N)C(=O)O)C(C)C)NC(=O)[C@@H]2CCCN2C(=O)[C@H](CCCCN)NC(=O)[C@@H]2CCCN2C(=O)[C@@H]2CCCN2C(=O)[C@H](Cc2ccc(O)cc2)NC(=O)[C@H](CO)NC(=O)[C@H](CCCCN)NC(=O)[C@H]([C@@H](C)O)NC(=O)[C@H](C)NC1=O)C(C)C (H-LVRGCATKSYPPKPCFVR-OH; disulfide 5-15),670
5,CC(C)C[C@H](N)C(=O)N[C@H](C(=O)N[C@@H](CCCNC(=N)N)C(=O)NCC(=O)N[C@H]1CSSC[C@@H](C(=O)N[C@@H](Cc2ccccc2)C(=O)N[C@H](C(=O)N[C@@H](CCCNC(=N)N)C(=O)O)C(C)C)NC(=O)[C@H](CCCCN)NC(=O)[C@@H]2CCCN2C(=O)[C@@H]2CCCN2C(=O)[C@H](Cc2ccc(O)cc2)NC(=O)[C@H](CO)NC(=O)[C@H](CCCCN)NC(=O)[C@H]([C@@H](C)O)NC1=O)C(C)C (H-LVRGCTKSYPPKCFVR-OH; disulfide 5-13),245
6,CC(C)C[C@H](N)C(=O)N[C@H](C(=O)N[C@@H](CCCNC(=N)N)C(=O)NCC(=O)N[C@H]1CSSC[C@@H](C(=O)N[C@@H](Cc2ccccc2)C(=O)N[C@H](C(=O)N[C@@H](CCCNC(=N)N)C(=O)O)C(C)C)NC(=O)[C@@H]2CCCN2C(=O)[C@H](CCCCN)NC(=O)[C@@H]2CCCN2C(=O)[C@@H]2CCCN2C(=O)[C@H](Cc2ccc(O)cc2)NC(=O)[C@H](CO)NC(=O)[C@H](CCCCN)NC(=O)[C@H](C)NC(=O)[C@H](Cc2c[nH]c3ccccc23)NC1=O)C(C)C (H-LVRGCWAKSYPPKPCFVR-OH; disulfide 5-15),1110
7,CC(C)C[C@H](N)C(=O)N[C@H](C(=O)N[C@@H](CCCNC(=N)N)C(=O)NCC(=O)N[C@H]1CSSC[C@@H](C(=O)N[C@@H](Cc2ccccc2)C(=O)N[C@H](C(=O)N[C@@H](CCCNC(=N)N)C(=O)O)C(C)C)NC(=O)[C@@H]2CCCN2C(=O)[C@H](CCCCN)NC(=O)[C@@H]2CCCN2C(=O)[C@@H]2CCCN2C(=O)[C@H](Cc2ccc(O)cc2)NC(=O)[C@H](C)NC(=O)[C@H](CCCCN)NC(=O)[C@H]([C@@H](C)O)NC(=O)[C@H](Cc2c[nH]c3ccccc23)NC1=O)C(C)C (H-LVRGCWTKAYPPKPCFVR-OH; disulfide 5-15),245
8,CC(C)C[C@H](N)C(=O)N[C@H](C(=O)N[C@@H](CCCNC(=N)N)C(=O)NCC(=O)N[C@H]1CSSC[C@@H](C(=O)N[C@@H](Cc2ccccc2)C(=O)N[C@H](C(=O)N[C@@H](CCCNC(=N)N)C(=O)O)C(C)C)NC(=O)[C@@H]2CCCN2C(=O)[C@H](CCCCN)NC(=O)[C@@H]2CCCN2C(=O)[C@@H]2CCCN2C(=O)[C@H](C)NC(=O)[C@H](CO)NC(=O)[C@H](CCCCN)NC(=O)[C@H]([C@@H](C)O)NC(=O)[C@H](Cc2c[nH]c3ccccc23)NC1=O)C(C)C (H-LVRGCWTKSAPPKPCFVR-OH; disulfide 5-15),142
9,CC(C)C[C@H](N)C(=O)N[C@H](C(=O)N[C@@H](CCCNC(=N)N)C(=O)NCC(=O)N[C@H]1CSSC[C@@H](C(=O)N[C@@H](Cc2ccccc2)C(=O)N[C@H](C(=O)N[C@@H](CCCNC(=N)N)C(=O)O)C(C)C)NC(=O)[C@@H]2CCCN2C(=O)[C@H](CCCCN)NC(=O)[C@H](C)NC(=O)[C@@H]2CCCN2C(=O)[C@H](Cc2ccc(O)cc2)NC(=O)[C@H](CO)NC(=O)[C@H](CCCCN)NC(=O)[C@H]([C@@H](C)O)NC(=O)[C@H](Cc2c[nH]c3ccccc23)NC1=O)C(C)C (H-LVRGCWTKSYPAKPCFVR-OH; disulfide 5-15),155
10,CC(C)C[C@H](N)C(=O)N[C@H](C(=O)N[C@@H](CCCNC(=N)N)C(=O)NCC(=O)N[C@H]1CSSC[C@@H](C(=O)N[C@@H](Cc2ccccc2)C(=O)N[C@H](C(=O)N[C@@H](CCCNC(=N)N)C(=O)O)C(C)C)NC(=O)[C@@H]2CCCN2C(=O)[C@H](C)NC(=O)[C@@H]2CCCN2C(=O)[C@@H]2CCCN2C(=O)[C@H](Cc2ccc(O)cc2)NC(=O)[C@H](CO)NC(=O)[C@H](CCCCN)NC(=O)[C@H]([C@@H](C)O)NC(=O)[C@H](Cc2c[nH]c3ccccc23)NC1=O)C(C)C (H-LVRGCWTKSYPPAPCFVR-OH; disulfide 5-15),400
11,CC(C)C[C@H](N)C(=O)N[C@H](C(=O)N[C@@H](CCCNC(=N)N)C(=O)NCC(=O)N[C@H]1CSSC[C@@H](C(=O)N[C@@H](Cc2ccccc2)C(=O)N[C@H](C(=O)N[C@@H](CCCNC(=N)N)C(=O)O)C(C)C)NC(=O)[C@H](C)NC(=O)[C@H](CCCCN)NC(=O)[C@@H]2CCCN2C(=O)[C@@H]2CCCN2C(=O)[C@H](Cc2ccc(O)cc2)NC(=O)[C@H](CO)NC(=O)[C@H](CCCCN)NC(=O)[C@H]([C@@H](C)O)NC(=O)[C@H](Cc2c[nH]c3ccccc23)NC1=O)C(C)C (H-LVRGCWTKSYPPKACFVR-OH; disulfide 5-15),252
12,CC(C)C[C@H](N)C(=O)N[C@H](C(=O)N[C@@H](CCCNC(=N)N)C(=O)NCC(=O)N[C@H]1CSSC[C@@H](C(=O)O)NC(=O)[C@@H]2CCCN2C(=O)[C@H](CCCCN)NC(=O)[C@@H]2CCCN2C(=O)[C@@H]2CCCN2C(=O)[C@H](Cc2ccc(O)cc2)NC(=O)[C@H](CO)NC(=O)[C@H](CCCCN)NC(=O)[C@H]([C@@H](C)O)NC(=O)[C@H](Cc2c[nH]c3ccccc23)NC1=O)C(C)C (H-LVRGCWTKSYPPKPC-OH; disulfide 5-15),322
13,C[C@H](NC(=O)[C@@H](N)CO)C(=O)N1CCC[C@H]1C(=O)N[C@@H](CCCNC(=N)N)C(=O)NCC(=O)N[C@H]1CSSC[C@@H](C(=O)N[C@@H](CCCCN)C(=O)O)NC(=O)[C@@H]2CCCN2C(=O)[C@H](CCCCN)NC(=O)[C@@H]2CCCN2C(=O)[C@@H]2CCCN2C(=O)[C@H](Cc2ccc(O)cc2)NC(=O)[C@H](CO)NC(=O)[C@H](CCCCN)NC(=O)[C@H]([C@@H](C)O)NC(=O)[C@H](Cc2c[nH]c3ccccc23)NC1=O (H-SAPRGCWTKSYPPKPCK-OH; disulfide 6-16),129
